Assay results as given in US5861387A, “Controlled release systems and low dose androgens” (Endorecherche Inc., priority 1995, dated 1999).
Values after ≈ are worked out from the molar mass of the structure shown. Where two headings read alike, the source gives them in different places.

Legend:
[1] = system: human breast cancer ZR-75-1 cells, androgen receptor; assay: Androgenic (androgen receptor) activity in ZR-75-1 cells: cell growth and GCDFP-15/GCDFP-24 secretion; type: cell-based; conditions: ZR-75-1 cells, low concentrations
Description: Maintenance of stock cultures The ZR-75-1 human breast cancer cell line can be obtained from the American Type Culture Collection (Rockville, Md.). The cells are routinely cultured in phenol red-free RPMI 1640 medium supplemented with 10 nM E2, 15 mM Hepes, 2 mM L-glutamine, 1 mM sodium pyruvate, 100 IU penicillin per ml, 100 μg streptomycin sulfate per ml, and 10% (v/v) fetal bovine serum (FBS), in a water-saturated atmosphere of 95% air: 5% CO2 at 37° C.
Stock cultures in their logarithmic growth phase are harvested with 0.05% trypsin/0.02% EDTA (w/v) in Hanks' balanced salts solution and resuspended in E2- and phenol red-free RPMI 1640 medium containing 5% (v/v) dextran-coated charcoal (DCC)-treated FBS and 500 ng of bovine insulin per ml, but otherwise supplemented as described above for maintenance of stock cultures. Cells were plated in 24-well Linbro culture plates (Flow Laboratories) at a final density of 0.5-4.0×10^4 cells/well.
Fourty-eight hours after plating, fresh SD medium containing the appropriate concentrations of steroids are added. […] The incubation media are replaced every other day and cells are harvested by trypsinization after 12 days of treatment, unless otherwise indicated. Cell number can be determined with a Coulter Counter.
Calculations and statistical analyses Apparent IC50 values are calculated using an iterative least squares regression (Rodbard, Endocrinology 94:1427-1437,1974), while apparent inhibition constants (Ki values) are calculated according to Cheng and Prusoff (Biochem. Pharmacol. 22: 3099-3108,1973).
In addition to inhibition of cell growth, the secretion of two glycoproteins, namely gross cystic disease fluid protein-15 (GCDFP-15) and GCDFP-24 is markedly stimulated by androgens (Simard et al., Mol. Endocrinol. 3: 694-702, 1989; Simard et al., Endocrinology 126: 3223-3231, 1990).
(§1) To assist in determining the activity of the potential compounds on the various steroid receptors, androgen, glucocorticoid, progesterone and estrogen-receptor-mediated activities of synthetic progestins and anabolic steroids can be measured in ZR-75-1 human breast cancer cells using cell growth as well as GCDFP-15 and GCDFP-24 release as parameters of response (Poulin and Labrie, Cancer Res. 46: 4933-4937, 1986; Poulin et al., Breast Cancer Res. Treatm. 12: 213-225, 1988; Poulin et al., Breast Cancer Res. Treatm. 13: 161-172, 1989; Poulin et al., Breast Cancer Res. Treatm. 13: 265-276, 1989; Simard et al., Mol. Endocrinol. 3: 694-702, 1989; Simard et al., Endocrinology 126: 3223-3231, 1990).
In order to analyze the interactions of synthetic progestins or anabolic steroids with the androgen receptor (AR) and glucocorticoid receptor (GR) in their inhibitory action on cell growth, one takes advantage of the additivity of the anti-proliferative effects of androgens and glucocorticoids in this cell line (Poulin et al., Breast Cancer Res. Treatm. 12: 213-225, 1988; Hatton and Labrie, F., unpublished data). […] On the other hand, the effect of a putative androgen can similarly be measured following saturation of GR by dexamethasone (DEX). […] Thus, in the presence of excess androgen (1 μM DMT) in the presence of E2 and insulin, glucocorticoid effects can be assessed with precision and with no interference by the other receptors. The same applies to study of the role of AR when the cells are incubated in the presence of excess glucocorticoid (3 μM DEX), in the presence of E2 and insulin.

estrogenic activity = conditions: cited from earlier work
[2] = system: ZR-75-1 human breast cancer cells, glucocorticoid receptor; conditions: detailed kinetic studies
Excerpt: as §1
In order to analyze the interactions of synthetic progestins or anabolic steroids with the androgen receptor (AR) and glucocorticoid receptor (GR) in their inhibitory action on cell growth, one takes advantage of the additivity of the anti-proliferative effects of androgens and glucocorticoids in this cell line (Poulin et al., Breast Cancer Res. Treatm. 12: 213-225, 1988; Hatton and Labrie, F., unpublished data). […] On the other hand, the effect of a putative androgen can similarly be measured following saturation of GR by dexamethasone (DEX). […]

antibody 144A = assay: MPA radioimmunoassay, specificity of antibody 144A; type: binding, rabbit
Excerpt: Antibody 144A was raised in rabbits against 17-hydroxyprogesterone-3-0-carboxymethyloxime-BSA. The labeled steroid used in the radioimmunoassay (RIA) was methyl-17α-hydroxyprogesterone acetate, 6α-[1,2-^3 H(N)]- obtained from NEN (CAT NO: NET 480) while the reference preparation was medroxyprogesterone acetate (MPA) obtained from Steraloids. The assay buffer used was 0.1% gelatin in 0.1M sodium phosphate, 0.15M sodium chloride, 0.1% sodium azide, pH 7.2. The extraction solvent mixture was ethyl ether-acetone (9:1, v:v) [EEA] while the LH-20 chromatography solvent mixture was iso-octane: toluene: methanol (90:5:5;v:v:v) [IOTH].
One ml of plasma was extracted twice with 5 ml of EEA. The extracts were evaporated to dryness with nitrogen and the remaining residue was dissolved in one ml of IOTH. The extracts were then subjected to LH-20 chromatography on […] columns (Coming CAT NO: 05 722A) filled with 2 g of LH-20 (Pharmacia). The gel was washed with 30 ml of IOTH before addition of one ml of sample and elution with IOTH. The first 6 ml were discarded. The following 10, 16.5 and 27.5 ml of eluent were fraction I (progesterone), II (MPA) and III (17-LH-progesterone), respectively. Fraction II was evaporated to dryness and reconstituted in 1.5 ml of assay buffer.
To each 12 x 75 mm borosilicate test tube was added: 0.2 ml containing 25,000 DPM of tritiated steroid, 0.5 ml of reference preparation ranging from 5 to 5000 pg/tube or 0.5 ml of extracted sample fraction II, 0.2 ml of antiserum 144A diluted 1/5000 or 0.2 ml of assay buffer to account for non specific binding. The tubes were then incubated overnight at 4° C. Then, 0.2 ml 2% charcoal Norit-A, 0.2% Dextran T-70 diluted in water was added. The tubes were then shaken gently and, after 10 min, they were centrifuged at 2000 x g for 10 min. The supernatant was mixed with 8 ml of Formula-989 (NEN: NEF-989) and the radioactivity was counted in a β-counter.

[3] = Stability to gamma sterilization (SEC, viscosity); type: physicochemical; conditions: 2.2 Megarads
Excerpt: FIGS. 10A and 10B show, in (A), "the variation of the different parameters" [M(n-1), Mn, Mw, Mz,M(z+1)] characteristics of the molecular mass of 50:50 poly[DL-lactide-co-glycolide] following exposure to the indicated levels of gamma irradiation (Mrad); and, in (B), the variation of the polydensity (Mw/Mn) versus the level of gamma irradiation (Mrad).
Before injection, the microspheres were sterilized by exposure to 2.2 Megarads of gamma radiation achieved with a Cobalt-60 source (Gammacell 200). The stability of MPA was checked by steric exclusion chromatography (SEC) while the stability of the polymer was analyzed by SEC using polystyrene standards for calibration and by the modification of the relative viscosity using a Ubbelohde capillary viscometer.
Samples of batch MPA-MB-V have been exposed to different amounts of gamma radiation (0,1.1, 2.2 Megarads) and the molecular mass distribution parameters [M(n-1), Mn, Mw, Mz, M(z+1)] (see FIG. 10A) as well as their polydispersity (Mw/Mn) (FIG. 10B) were measured.

[4] = system: ZR-75-1 human breast cancer cells; conditions: cited from earlier work
breast cancer = conditions: high doses, unselected breast cancer patients; cited from earlier work
endometriosis [5] = conditions: high dose, 6 months, cited from earlier work
kidney = conditions: mouse, in vivo; cited from earlier work
ventral prostate = conditions: rat, in vivo; cited from earlier work
pituitary AR [6] = conditions: rat, in vivo; cited from earlier work
pituitary AR [7] = conditions: in vivo; cited from earlier work
[8] = cited from earlier work
[9] = system: estrogen binding in the endometrium; conditions: oral, follicular phase; cited from earlier work
endometrial cancer = conditions: high dose; cited from earlier work
[10] = system: ZR-75-1 human breast cancer cells, progesterone receptor; assay: Progesterone receptor-mediated inhibition of ZR-75-1 cell growth; type: cell-based
Description: These two characteristics of ZR-75-1 cell growth permit study of the extent to which a tested compound's effects on ZR-75-1 cells are attributed to its interaction with PgR by evaluating the effect of insulin and/or estrogen addition on the growth response measured at the end of a 15-day incubation of ZR-75-1 cells with the test compounds.

[11] = system: estrogen (ER) and progesterone (PgR) receptor contents in ZR-75-1 cells; conditions: cited from earlier work
endometriosis [12] = conditions: in vivo; cited from earlier work
bone resorption = conditions: in vivo; cited from earlier work
bone [13] = conditions: in vivo; cited from earlier work
bone [14] = conditions: in vivo; cited from earlier work; remark: listed apart in the source
bone [15] = conditions: cited from earlier work
bone [16] = conditions: in vivo; cited from earlier work; remark: listed apart in the source
[17] = system: hypocalcemic effect of calcitonin; conditions: castrated rats; cited from earlier work
masculinizing activity = conditions: low blood concentrations; cited from earlier work

C#CC1(O)CC[C@H]2[C@@H]3CCC4=CC(=O)CC[C@@H]4[C@H]3CC[C@@]21CC (mixture of isomers) [norgestrel]
androgenic activity [1]: possess androgenic activity at low concentrations
estrogenic activity (estrogenic activity): possess estrogenic activity

C[C@@H]1C[C@H]2[C@@H]3CCC4=CC(=O)C=C[C@]4(C)[C@@]3(F)[C@@H](O)C[C@]2(C)[C@@]1(O)C(=O)CO [DEX, dexamethasone]
concentration exerting maximal inhibitory effect on the GR [2]: 3 µM

CC(=O)O[C@]1(C(C)=O)CC[C@H]2[C@@H]3C[C@H](C)C4=CC(=O)CC[C@]4(C)[C@H]3CC[C@@]21C [MPA, 6-alpha-methyl,17-alpha-acetoxy progesterone]
ED50 value (RIA) (antibody 144A; MPA radioimmunoassay): 315 pg/mL (≈ 0.815 nM)
stability to gamma radiation [3]: does not damage MPA
concentration of maximal inhibitory action on human breast cancer cell growth [4]: 1 nM
dose required for glucocorticoid action relative to maximal growth inhibition [4]: approximately 1000 fold
mechanism of growth inhibition of ZR-75-1 cells [4]: mainly due to the androgenic properties of the compound
overall clinical response rate (breast cancer): 40%
partial resolution (endometriosis [5]; placebo 6%): 13 % of subjects
resolution of the disease (endometriosis [5]; placebo 12%): 50 % of the patients
androgenic activity (kidney): exhibits androgenic activity
androgenic activity (ventral prostate): exhibits androgenic activity
effect on gonadotropin secretion (pituitary AR [6]): inhibitory effect
effect on gonadotropin secretion (pituitary AR [7]): inhibitory effect
virilizing symptoms ([8]; acne, hirsutism): seldom causes significant virilizing symptoms
adrenal function ([8]; human, in vivo): Suppression of adrenal function
glucocorticoid-like side effects ([8]; human, in vivo): Cushingoid syndrome, euphoria and subjective pain relief
level of estrogen binding in the endometrium [9]: decrease in the level of estrogen binding
treatment of endometrial cancer (endometrial cancer): successfully used
treatment of endometrial carcinoma compared with Tamoxifen (endometrial cancer): success similar to that of Tamoxifen

CCC(=O)[C@@]1(C)CC[C@H]2[C@@H]3CCC4=CC(=O)CCC4=C3CC[C@@]21C [R5020]
condition under which antiproliferative effect is observed [10]: observed only under E1 -stimulated conditions
effect of insulin on inhibition via PgR ([10]; addition of insulin): completely reverses the inhibition

CC(C)(O)C(=O)Nc1ccc([N+](=O)[O-])c(C(F)(F)F)c1 [hydroxyflutamide]
effect on androgenic action of DHT [11]: competitively reversed

C[C@]12CCC(=O)C=C1CC[C@@H]1[C@@H]2CC[C@@]2(C)[C@H]1CC[C@]2(C)O [methyltestosterone, 17α-methyltestosterone]
symptoms of endometriosis (endometriosis [12]): relieve the symptoms of endometriosis

CCCCCCCCCC(=O)O[C@H]1CC[C@H]2[C@@H]3CCC4=CC(=O)CC[C@@H]4[C@H]3CC[C@]12C [nandrolone decanoate]
bone resorption (bone resorption): reduced bone resorption
bone mass (bone [13]): increased bone mass
bone resorption, osteoporotic women (bone [13]): reduced bone resorption

C[C@]12CC[C@H]3[C@@H](CCC4=CC(=O)CC[C@@H]43)[C@@H]1CC[C@@H]2O [nandrolone]
androgenic side effects (bone [14]): 50 % of patients
cortical bone mineral content (bone [14]): increased cortical bone mineral content

C#C[C@]1(O)CC[C@H]2[C@@H]3CCC4=CC(=O)CC[C@@H]4[C@H]3CC[C@@]21C [norethisterone]
estrogenic activity (estrogenic activity): possess estrogenic activity

C[C@]12CC[C@H]3[C@@H](CCC4=CC(=O)CC[C@@]43C)[C@@H]1CC[C@@H]2O [testosterone]
cross-reactivity with antibody 144A (antibody 144A): less than 0.1%
bone histomorphometry (bone [15]; hypogonadal males): increases in relative osteoid volume, total osteoid surface, linear extend of bone formation and bone mineralization
nitrogen, calcium and phosphate balance (bone [15]; in vivo): positive nitrogen, calcium and phosphate balance
osteoid surfaces and beam width (bone [15]; in vivo): increase osteoid surfaces and beam width
bone formation (bone [15]; men with primary hypogonadism): increases bone formation
overall quantity of bone (bone [16]): increases the overall quantity of bone
hypocalcemic effect of calcitonin [17]: increases the hypocalcemic effect of calcitonin
masculinizing activity (masculinizing activity): considerable masculinizing activity even at low blood concentrations
